# Columns and labels:
# [1] = target: T1, Cytoplasmic tyrosine-protein kinase BMX (Homo sapiens) (UniProt P51813); test: Selectivity interaction (KinomeScan (DiscoverX)) EUB0000666a BMX; conditions: at 10 µM
# T1 sequence (whole entry): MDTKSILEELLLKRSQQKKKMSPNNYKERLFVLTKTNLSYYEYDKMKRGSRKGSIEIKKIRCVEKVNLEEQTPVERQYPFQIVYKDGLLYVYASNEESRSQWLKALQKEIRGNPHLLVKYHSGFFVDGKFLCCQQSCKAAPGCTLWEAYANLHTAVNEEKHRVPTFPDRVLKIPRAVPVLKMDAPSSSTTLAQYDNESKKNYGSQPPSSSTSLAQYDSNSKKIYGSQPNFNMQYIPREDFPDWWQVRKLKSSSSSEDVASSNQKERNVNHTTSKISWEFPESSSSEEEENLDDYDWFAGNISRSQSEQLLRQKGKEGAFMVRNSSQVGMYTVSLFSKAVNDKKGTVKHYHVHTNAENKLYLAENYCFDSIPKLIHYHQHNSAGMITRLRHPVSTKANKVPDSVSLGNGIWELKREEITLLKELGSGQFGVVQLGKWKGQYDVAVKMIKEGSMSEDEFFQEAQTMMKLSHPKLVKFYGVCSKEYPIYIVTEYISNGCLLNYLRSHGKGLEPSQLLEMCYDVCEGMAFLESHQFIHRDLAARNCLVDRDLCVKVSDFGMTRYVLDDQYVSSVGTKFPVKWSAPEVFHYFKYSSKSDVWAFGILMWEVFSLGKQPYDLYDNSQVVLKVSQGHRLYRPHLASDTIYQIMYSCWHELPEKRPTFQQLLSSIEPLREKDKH
# [2] = target: Calcium/calmodulin-dependent protein kinase type II subunit gamma (Homo sapiens) (UniProt Q13555); test: Selectivity interaction (Kinase panel (KiNativ target engagement assay in Jurkat cells)) EUB0001635a CAMK2G; type: cell-based; conditions: Selectivity number of off-targets 0.0, Selectivity number of targets 233.0, Source Knowledge https://www.sciencedirect.com/science/article/pii/S2451945619300674?via%3Dihub, at 1 µM
# Chain of Calcium/calmodulin-dependent protein kinase type II subunit gamma (Homo sapiens) (Q13555 whole entry, the tested form may be a part): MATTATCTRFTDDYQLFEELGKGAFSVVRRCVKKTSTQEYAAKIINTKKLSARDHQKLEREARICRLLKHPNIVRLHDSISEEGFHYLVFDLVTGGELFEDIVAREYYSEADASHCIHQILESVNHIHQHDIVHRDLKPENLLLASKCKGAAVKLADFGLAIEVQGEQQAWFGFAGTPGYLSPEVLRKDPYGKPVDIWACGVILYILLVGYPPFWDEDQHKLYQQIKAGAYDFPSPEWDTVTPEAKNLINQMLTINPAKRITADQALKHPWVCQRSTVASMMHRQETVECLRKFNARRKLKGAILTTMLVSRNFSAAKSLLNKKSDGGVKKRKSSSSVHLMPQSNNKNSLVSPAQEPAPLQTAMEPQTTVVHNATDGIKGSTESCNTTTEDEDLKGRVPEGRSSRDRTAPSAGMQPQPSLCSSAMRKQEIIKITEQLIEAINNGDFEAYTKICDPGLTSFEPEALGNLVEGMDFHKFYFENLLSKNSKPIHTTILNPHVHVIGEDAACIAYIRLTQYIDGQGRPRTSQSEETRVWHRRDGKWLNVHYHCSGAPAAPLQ
# [3] = Selectivity interaction (PWWP, WD40, and Tudor domain panel (DSLS measurements, literature)) EUB0000270b SCML2
# [4] = target: Dual specificity mitogen-activated protein kinase kinase 1 (Homo sapiens, UniProt Q02750); test: Selectivity interaction (ActivX KiNativ screen (kinase selectivity in THP-1 cell lysates)) EUB0000639a MAP2K1; type: subcellular; conditions: lysate
# Chain of Dual specificity mitogen-activated protein kinase kinase 1 (Q02750 whole entry): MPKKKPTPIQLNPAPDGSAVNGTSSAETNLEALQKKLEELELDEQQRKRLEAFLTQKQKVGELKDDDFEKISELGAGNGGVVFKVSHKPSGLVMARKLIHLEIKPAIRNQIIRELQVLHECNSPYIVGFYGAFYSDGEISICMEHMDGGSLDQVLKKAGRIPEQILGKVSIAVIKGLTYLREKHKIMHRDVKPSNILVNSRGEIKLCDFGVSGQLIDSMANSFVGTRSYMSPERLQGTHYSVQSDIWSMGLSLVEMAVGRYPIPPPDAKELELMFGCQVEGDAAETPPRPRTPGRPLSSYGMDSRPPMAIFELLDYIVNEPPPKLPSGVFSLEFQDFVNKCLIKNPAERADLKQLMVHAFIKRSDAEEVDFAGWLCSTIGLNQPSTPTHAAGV
# [5] = target: Tyrosine-protein kinase ABL1 (Homo sapiens, UniProt P00519); test: (§1) Selectivity interaction (KinomeScan (DiscoverX)) EUB0000092b ABL1; conditions: at 10 µM
# [6] = system: Tyrosine-protein kinase ABL1 (Homo sapiens), P00519 [Q252H]; test: as §1; conditions: at 10 µM
# [7] = system: Tyrosine-protein kinase ABL1 (Homo sapiens), P00519 [F317I]; test: as §1; conditions: at 10 µM
# [8] = system: Tyrosine-protein kinase ABL1 (Homo sapiens), P00519 [M351T]; test: as §1; conditions: at 10 µM
# [9] = system: Tyrosine-protein kinase ABL1 (Homo sapiens), P00519 [H396P]; test: as §1; conditions: at 10 µM
# [10] = system: Tyrosine-protein kinase ABL1 (Homo sapiens), P00519 [T315I]; test: as §1; conditions: at 10 µM
# [11] = system: Tyrosine-protein kinase ABL1 (Homo sapiens), P00519 [F317L]; test: as §1; conditions: at 10 µM
# [12] = target: Tyrosine-protein kinase ITK/TSK (Homo sapiens, UniProt Q08881); test: Selectivity interaction (Kinase counterscreening (biochemical assay)) EUB0000604a ITK
# Chain of Tyrosine-protein kinase ITK/TSK (Q08881 whole entry, canonical isoform): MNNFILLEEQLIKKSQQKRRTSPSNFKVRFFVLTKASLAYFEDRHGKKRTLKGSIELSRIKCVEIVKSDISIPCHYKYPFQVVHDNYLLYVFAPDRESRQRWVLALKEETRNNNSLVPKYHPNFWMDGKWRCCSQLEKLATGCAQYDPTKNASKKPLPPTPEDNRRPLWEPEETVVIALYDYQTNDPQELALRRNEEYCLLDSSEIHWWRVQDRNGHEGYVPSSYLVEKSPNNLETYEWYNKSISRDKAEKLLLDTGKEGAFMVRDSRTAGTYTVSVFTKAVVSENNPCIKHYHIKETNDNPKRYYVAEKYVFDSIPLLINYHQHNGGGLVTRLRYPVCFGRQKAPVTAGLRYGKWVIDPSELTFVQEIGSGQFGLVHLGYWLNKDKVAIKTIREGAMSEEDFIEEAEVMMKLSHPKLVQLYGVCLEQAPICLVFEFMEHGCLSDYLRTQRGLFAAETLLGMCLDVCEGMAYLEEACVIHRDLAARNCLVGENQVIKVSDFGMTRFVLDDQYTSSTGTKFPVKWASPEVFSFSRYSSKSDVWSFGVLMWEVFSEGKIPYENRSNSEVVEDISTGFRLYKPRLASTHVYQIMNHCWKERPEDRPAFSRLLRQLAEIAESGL
# [13] = target: Casein kinase I isoform delta (Homo sapiens, UniProt P48730); conditions: at 10 µM
# Chain of Casein kinase I isoform delta (P48730 whole entry, looked up, canonical isoform): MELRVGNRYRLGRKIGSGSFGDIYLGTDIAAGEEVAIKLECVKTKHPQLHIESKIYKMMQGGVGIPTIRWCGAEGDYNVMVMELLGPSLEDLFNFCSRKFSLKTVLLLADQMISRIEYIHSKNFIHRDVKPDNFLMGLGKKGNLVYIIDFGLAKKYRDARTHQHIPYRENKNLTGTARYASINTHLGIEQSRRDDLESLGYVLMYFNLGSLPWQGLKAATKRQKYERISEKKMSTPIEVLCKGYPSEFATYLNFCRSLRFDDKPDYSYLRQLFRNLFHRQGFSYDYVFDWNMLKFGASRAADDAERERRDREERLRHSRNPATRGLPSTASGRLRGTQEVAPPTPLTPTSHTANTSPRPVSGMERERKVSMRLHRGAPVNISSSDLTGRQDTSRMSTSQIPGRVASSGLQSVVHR
# [14] = target: T2, Megakaryocyte-associated tyrosine-protein kinase (Homo sapiens) (UniProt P42679); conditions: at 10 µM
# T2 sequence (whole entry): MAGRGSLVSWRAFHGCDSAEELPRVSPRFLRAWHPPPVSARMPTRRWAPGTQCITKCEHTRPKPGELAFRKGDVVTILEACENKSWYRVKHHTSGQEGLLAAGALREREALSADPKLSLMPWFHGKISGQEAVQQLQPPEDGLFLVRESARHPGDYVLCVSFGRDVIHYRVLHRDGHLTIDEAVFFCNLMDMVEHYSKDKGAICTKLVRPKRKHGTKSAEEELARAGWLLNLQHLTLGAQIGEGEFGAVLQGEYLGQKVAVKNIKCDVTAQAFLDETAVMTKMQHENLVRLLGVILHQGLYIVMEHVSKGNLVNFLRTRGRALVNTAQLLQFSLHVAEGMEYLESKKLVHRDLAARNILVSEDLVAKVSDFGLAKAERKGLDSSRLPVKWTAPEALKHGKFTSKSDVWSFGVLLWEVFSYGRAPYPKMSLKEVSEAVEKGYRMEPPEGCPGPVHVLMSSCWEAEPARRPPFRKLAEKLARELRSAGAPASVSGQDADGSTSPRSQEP
# [15] = target: Tyrosine-protein kinase SYK (Homo sapiens, UniProt P43405); test: Selectivity interaction (KinomeScan (DiscoverX)) EUB0000655a SYK; conditions: at 10 µM
# [16] = target: Serine/threonine-protein kinase 32C (Homo sapiens) (UniProt Q86UX6); test: Selectivity interaction (KinomeScan (DiscoverX)) EUB0000607a STK32C; conditions: at 10 µM
# Chain of Serine/threonine-protein kinase 32C (Homo sapiens) (Q86UX6 whole entry): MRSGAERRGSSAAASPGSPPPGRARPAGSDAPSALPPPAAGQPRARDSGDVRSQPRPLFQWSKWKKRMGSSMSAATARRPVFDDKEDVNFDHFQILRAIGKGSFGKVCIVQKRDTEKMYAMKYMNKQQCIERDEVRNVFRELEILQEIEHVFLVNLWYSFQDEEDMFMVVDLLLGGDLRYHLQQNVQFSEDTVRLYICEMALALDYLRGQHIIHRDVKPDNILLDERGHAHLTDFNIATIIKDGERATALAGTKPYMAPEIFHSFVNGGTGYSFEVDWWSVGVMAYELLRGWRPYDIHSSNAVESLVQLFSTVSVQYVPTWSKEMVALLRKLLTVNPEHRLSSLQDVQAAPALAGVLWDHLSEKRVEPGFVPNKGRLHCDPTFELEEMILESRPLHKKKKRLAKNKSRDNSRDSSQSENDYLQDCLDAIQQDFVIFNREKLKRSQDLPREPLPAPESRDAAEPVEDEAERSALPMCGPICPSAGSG
# [17] = target: Ribosomal protein S6 kinase alpha-1 (Homo sapiens, UniProt Q15418); test: Selectivity interaction (Kinase panel (Z-LYTE Assay)) EUB0001632a RPS6KA1; conditions: at 10 µM
# Chain of Ribosomal protein S6 kinase alpha-1 (Q15418 whole entry): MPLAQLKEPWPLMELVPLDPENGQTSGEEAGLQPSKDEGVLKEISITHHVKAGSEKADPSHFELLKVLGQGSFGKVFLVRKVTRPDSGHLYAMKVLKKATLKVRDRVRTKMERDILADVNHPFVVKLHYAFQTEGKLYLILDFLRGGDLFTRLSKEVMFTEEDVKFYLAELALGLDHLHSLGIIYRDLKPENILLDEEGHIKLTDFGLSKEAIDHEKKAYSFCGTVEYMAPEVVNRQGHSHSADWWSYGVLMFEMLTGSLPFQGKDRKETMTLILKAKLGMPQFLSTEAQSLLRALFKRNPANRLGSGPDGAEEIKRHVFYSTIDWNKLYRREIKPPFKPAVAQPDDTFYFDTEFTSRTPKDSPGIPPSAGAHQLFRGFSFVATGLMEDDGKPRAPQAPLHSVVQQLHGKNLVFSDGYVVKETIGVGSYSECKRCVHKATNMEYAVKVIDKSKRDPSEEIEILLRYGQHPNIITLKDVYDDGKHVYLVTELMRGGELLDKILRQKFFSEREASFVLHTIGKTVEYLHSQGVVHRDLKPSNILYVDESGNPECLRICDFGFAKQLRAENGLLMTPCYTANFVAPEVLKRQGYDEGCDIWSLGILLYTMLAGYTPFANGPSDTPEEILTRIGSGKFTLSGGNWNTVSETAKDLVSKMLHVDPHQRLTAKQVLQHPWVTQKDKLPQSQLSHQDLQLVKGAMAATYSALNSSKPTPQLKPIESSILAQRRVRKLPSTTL
smiles,measurement,setting,value
O=C(NOC[C@H](O)CO)c1ccc(F)c(F)c1Nc1ccc(I)cc1F,% of control,[1],92%
C=CC(=O)Nc1ccc(C(=O)Nc2[nH]nc3c2CN(C(=O)N[C@H](CN(C)C)c2ccccc2)C3(C)C)cc1,% of engagement,[2],35.8%
Cc1cc(CN)cc(C)c1-c1ncn(C)c1-c1cncn1C,dTagg,[3],0.2 K
CC[C@@H]1[C@H](F)C(=O)N[C@@H]1COc1nccc2cc(C(N)=O)c(OC)cc12 [ZIMLOVISERTIB],% of inhibition,[4]; at 0.01 µM,-25.6%
same,% of inhibition,[4]; at 0.04 µM,-4.8%
same,% of inhibition,[4]; at 0.2 µM,-3.6%
same,% of inhibition,[4]; at 1 µM,3.1%
same,% of inhibition,[4]; at 5 µM,18.5%
CCC(=O)N1CCN(c2ccc(-n3c(=O)ccc4cnc5ccc(-c6cnc7ccccc7c6)cc5c43)cc2C(F)(F)F)CC1,% of control,[5],60%
same,% of control,[6],89%
same,% of control,[7],100%
same,% of control,[8],100%
same,% of control,[9],68%
same,% of control,[10],100%
same,% of control,[11],100%
Cc1cnc(Nc2ccc(F)cc2Cl)nc1-c1c[nH]c(C(=O)N[C@H](CO)c2cccc(Cl)c2)c1,Ki,[12],> 4 µM
Cc1cc([C@@H](C)Nc2ccccc2C(=O)O)c2nc(N3CCOCC3)cc(=O)n2c1 [AZD-6482],% of control,[13],86%
same,% of control,[14],96%
CN(C)CCOc1ccc(-c2nc(-c3ccncc3)c(-c3ccc4c(c3)CC/C4=N\O)[nH]2)cc1,% of control,[15],100%
CNC(=O)Nc1ccc(-c2nc(N3CC4CCC(C3)O4)c3cnn(C4CCC5(CC4)OCCO5)c3n2)cc1,% of control,[16],90%
Cn1cc(-n2cnc3c(NCc4nc5cc(Cl)c(Cl)cc5[nH]4)nc(N4CCOCC4)nc32)cn1,% of control,[17],-6.37%

# — ChEMBL document CHEMBL5465560, “Selectivity Literature for EUbOPEN Chemogenomic Library” (2024)
